What was measured:
[1] = system: dopamine output in the medial prefrontal cortex; test: Microdialysis: dopamine output in the medial prefrontal cortex of freely moving rats; assay type: in vivo, rat; settings: for effect on dopamine output in the medial prefrontal cortex: citalopram alone, or low dose of Idazoxan added to citalopram; for DOPAMINE Medial Prefrontal Cortex, mean values: n = 5
Description: (§1) Adult male BK1:WR (Wistar) rats weighing 230-390 g were used in all experiments. Animals arrived at least five days prior to experimental use and were housed (4 per cage [Makrolon IV]) in the animal facility under standard laboratory conditions with a 12 h light/dark cycle with lights on at 6.00 a.m. All experiments were performed between 8.00 a.m. and 6.00 p.m. Food and water were available ad lib. All experiments were approved by, and conducted in accordance with, the local Animal Ethics Committee (Stockholms Norra och Södra Försöksdjursetiska Kommittéer) (permits no. N216/00, N11/00). The probe implantation and dialysis procedure, as well as the biochemical analyses, were similar to those previously described (Hertel et al 1996, […] et al 1999). Anesthetized male BKI:WR (Wistar) rats (B&K Universal, Sollentuna, Sweden; sodium pentobarbital, 60 mg/kg, intraperitoneal; i.p.) were implanted with dialysis probes in the medial prefrontal cortex (mPFC) [AP: +2.6; ML: -0.6; DV: -5.2], relative to bregma and dural surface (Paxinos and Watson 1998). Dialysis occurred through a semipermeable membrane (AN69 Hospal) with an active surface length of 4 mm. Dialysis experiments were conducted approximately 48 h after surgery in freely moving rats. The dialysis probe was perfused with a physiological perfusion solution (147 mM sodium chloride, 3.0 mM potassium chloride, 1.3 mM calcium chloride, 1.0 mM magnesium chloride, and 1.0 mM sodium phosphate, pH 7.4) at a rate of 2.5 μl/min set by a microinfusion pump (Harvard Apparatus, Holliston, Mass.). On-line quantification of noradrenaline (NA) or dopamine (DA) in the dialysate was accomplished by high pressure liquid chromatography coupled to electrochemical detection. The placement of the probe was later verified in slices stained with neutral red. 2-Way Anova (treatment×time) followed by Neuman-Keuls Post Hoc comparison test.

[2] = system: noradrenaline output in the medial prefrontal cortex; test: Microdialysis: noradrenaline output in the medial prefrontal cortex of freely moving rats; assay type: in vivo, rat; settings: for effect on noradrenaline output in the medial prefrontal cortex: citalopram alone, or low dose of Idazoxan added to citalopram; for NORADRENALINE Medial Prefrontal Cortex, mean values: n = 5
Description: as §1

[3] = awake freely moving rat, low dose of Idazoxan added to citalopram
[4] = TIME 30 min, after citalopram 5 mg/kg s.c., before saline/idazoxan
[5] = TIME 60 min, after citalopram 5 mg/kg s.c., before saline/idazoxan
[6] = TIME 90 min, after citalopram 5 mg/kg s.c., before saline/idazoxan
[7] = TIME 120 min, citalopram 5 mg/kg s.c., then saline 1 ml/kg or idazoxan 1.5 mg/kg s.c. after the 90 min sample
[8] = TIME 150 min, citalopram 5 mg/kg s.c., then saline 1 ml/kg or idazoxan 1.5 mg/kg s.c. after the 90 min sample
[9] = TIME 180 min, citalopram 5 mg/kg s.c., then saline 1 ml/kg or idazoxan 1.5 mg/kg s.c. after the 90 min sample
[10] = TIME 210 min, citalopram 5 mg/kg s.c., then saline 1 ml/kg or idazoxan 1.5 mg/kg s.c. after the 90 min sample
[11] = TIME 240 min, citalopram 5 mg/kg s.c., then saline 1 ml/kg or idazoxan 1.5 mg/kg s.c. after the 90 min sample
[12] = TIME 270 min, citalopram 5 mg/kg s.c., then saline 1 ml/kg or idazoxan 1.5 mg/kg s.c. after the 90 min sample

c1ccc2c(c1)OCC(C1=NCCN1)O2 (racemic) [Idazoxan, 2-(1,4-benzodioxan-2-yl)-2-imidazoline]
effect on dopamine output in the medial prefrontal cortex ([1]; awake freely moving rat): significant increase | duration of the increase in dopamine output [1, 3]: approximately 2 hours | effect on noradrenaline output in the medial prefrontal cortex ([2]; awake freely moving rat): significant increase | duration of the increase in noradrenaline output [2, 3]: approximately 2 hours

CN(C)CCCC1(c2ccc(F)cc2)OCc2cc(C#N)ccc21 (stereo not drawn) [Citalopram + Saline, Citalopram]
DOPAMINE Medial Prefrontal Cortex, mean values [1, 4]: 129.4 % Baseline | DOPAMINE Medial Prefrontal Cortex, mean values [1, 5]: 104.5 % Baseline | DOPAMINE Medial Prefrontal Cortex, mean values [1, 6]: 109.1 % Baseline | DOPAMINE Medial Prefrontal Cortex, mean values [1, 7]: 127.8 % Baseline | DOPAMINE Medial Prefrontal Cortex, mean values [1, 8]: 110.3 % Baseline | DOPAMINE Medial Prefrontal Cortex, mean values [1, 9]: 97.7 % Baseline | DOPAMINE Medial Prefrontal Cortex, mean values [1, 10]: 88.0 % Baseline | DOPAMINE Medial Prefrontal Cortex, mean values [1, 11]: 104.5 % Baseline | DOPAMINE Medial Prefrontal Cortex, mean values [1, 12]: 94.1 % Baseline | effect on dopamine output in the medial prefrontal cortex ([1]; awake freely moving rat): does not per se affect | NORADRENALINE Medial Prefrontal Cortex, mean values [2, 4]: 127.8 % Baseline | NORADRENALINE Medial Prefrontal Cortex, mean values [2, 5]: 118.8 % Baseline | NORADRENALINE Medial Prefrontal Cortex, mean values [2, 6]: 105.5 % Baseline | NORADRENALINE Medial Prefrontal Cortex, mean values [2, 7]: 114.6 % Baseline | NORADRENALINE Medial Prefrontal Cortex, mean values [2, 8]: 103.2 % Baseline | NORADRENALINE Medial Prefrontal Cortex, mean values [2, 9]: 81.6 % Baseline | NORADRENALINE Medial Prefrontal Cortex, mean values [2, 10]: 88.7 % Baseline | NORADRENALINE Medial Prefrontal Cortex, mean values [2, 11]: 83.7 % Baseline | NORADRENALINE Medial Prefrontal Cortex, mean values [2, 12]: 87.9 % Baseline | effect on noradrenaline output in the medial prefrontal cortex ([2]; awake freely moving rat): does not per se affect
